From PMC12406253, “Exploration of the Neuromodulatory Properties of Fyn and GSK-3β Kinases Exploiting 7‑Azaindole-Based Inhibitors” (Journal of Medicinal Chemistry, 2025)

Key:
[1] = system: primary rat cerebellar granule neurons (CGNs); test: Neurotoxicity, cell viability in CGNs (MTT); format: cell-based; details: 5, 10, and 25 μM, 24 h
Experimental: A preliminary cell viability assessment was conducted in primary rat cerebellar granule neurons (CGNs), which are considered a reliable model for studying cellular and molecular mechanisms of survival/apoptosis and neurodegeneration/neuroprotection.
Primary cerebellar granule cells were dissociated from cerebella and plated on 96-well plates, previously coated with 10 μg/mL poly-L-lysine, at a density of 1.2 × 10^5 cells/0.2 mL medium/well in BME supplemented with 10% heat-inactivated FBS (Life Technologies), 2 mmol/L glutamine, 100 μmol/L gentamicin sulfate, and 25 mM KCl (all from Sigma-Aldrich). Sixteen hours later, 10 μM cytosine arabinofuranoside (Sigma-Aldrich) was added to avoid glial proliferation. After 7 days in vitro, differentiated neurons were shifted to serum-free BME medium and exposed to increasing concentrations (5 μM, 10 μM, 25 μM) of compounds of interest for 24 h. Then, cell viability was evaluated through the MTT assay.

[2] = system: primary rat cerebellar granule neurons (CGNs); test: Neuroprotection in CGNs, serum/potassium deprivation (MTT); format: cell-based; details: 5, 10, and 25 μM, 48 h
Source text: First, we evaluated the neuroprotective properties of the selected compounds in the same cell line, once the expression of Fyn and GSK-3β in this cellular model was verified (Figure S2), after a serum/potassium deprivation experiment, which simulates physiological aging (and mortality), triggering around 20% of cell death. In particular, 7 days differentiated CGNs were exposed to serum-free BME medium with low extracellular concentration of K^+ ions and treated at selected doses (i.e., 5, 10, and 25 μM) of compounds for 48 h. Neuronal viability was then determined with an MTT assay.
To evaluate the neuroprotective effect of our compounds, we tested increasing concentrations (5 μM, 10 μM, 25 μM) of compounds of interest in differentiated CGNs switched to serum-free BME medium with 5 mM KCl (serum-potassium deprivation) for 48 h to mimic in vitro the naturally occurring death of granule cells. Neuroprotection was evaluated through MTT assay.
For MTT assay, thiazolyl blue was added to the culture medium at a final concentration of 0.1 mg/mL. Following a 20 min incubation at 37 °C in the dark, the MTT precipitate was dissolved in 0.1 M Tris–HCl pH 7.5 buffer containing 5% Triton X-100 (all from Sigma-Aldrich) and absorbance was read at 570 nm in a microplate spectrophotometric reader (Bio-Rad).

Abl(h) = biological target: T1, Abl(h) (Homo sapiens, UniProt P00519); test: Eurofins KinaseProfiler radiometric kinase assay; format: biochemical; details: for Abl inhibition: 10 µM; for remaining activity at 10 µM: read-out: Abl(h) % Residual activity
T1 construct: purchased Eurofins KinaseProfiler (Eurofins Cerep)
T1 sequence (P00519 whole entry): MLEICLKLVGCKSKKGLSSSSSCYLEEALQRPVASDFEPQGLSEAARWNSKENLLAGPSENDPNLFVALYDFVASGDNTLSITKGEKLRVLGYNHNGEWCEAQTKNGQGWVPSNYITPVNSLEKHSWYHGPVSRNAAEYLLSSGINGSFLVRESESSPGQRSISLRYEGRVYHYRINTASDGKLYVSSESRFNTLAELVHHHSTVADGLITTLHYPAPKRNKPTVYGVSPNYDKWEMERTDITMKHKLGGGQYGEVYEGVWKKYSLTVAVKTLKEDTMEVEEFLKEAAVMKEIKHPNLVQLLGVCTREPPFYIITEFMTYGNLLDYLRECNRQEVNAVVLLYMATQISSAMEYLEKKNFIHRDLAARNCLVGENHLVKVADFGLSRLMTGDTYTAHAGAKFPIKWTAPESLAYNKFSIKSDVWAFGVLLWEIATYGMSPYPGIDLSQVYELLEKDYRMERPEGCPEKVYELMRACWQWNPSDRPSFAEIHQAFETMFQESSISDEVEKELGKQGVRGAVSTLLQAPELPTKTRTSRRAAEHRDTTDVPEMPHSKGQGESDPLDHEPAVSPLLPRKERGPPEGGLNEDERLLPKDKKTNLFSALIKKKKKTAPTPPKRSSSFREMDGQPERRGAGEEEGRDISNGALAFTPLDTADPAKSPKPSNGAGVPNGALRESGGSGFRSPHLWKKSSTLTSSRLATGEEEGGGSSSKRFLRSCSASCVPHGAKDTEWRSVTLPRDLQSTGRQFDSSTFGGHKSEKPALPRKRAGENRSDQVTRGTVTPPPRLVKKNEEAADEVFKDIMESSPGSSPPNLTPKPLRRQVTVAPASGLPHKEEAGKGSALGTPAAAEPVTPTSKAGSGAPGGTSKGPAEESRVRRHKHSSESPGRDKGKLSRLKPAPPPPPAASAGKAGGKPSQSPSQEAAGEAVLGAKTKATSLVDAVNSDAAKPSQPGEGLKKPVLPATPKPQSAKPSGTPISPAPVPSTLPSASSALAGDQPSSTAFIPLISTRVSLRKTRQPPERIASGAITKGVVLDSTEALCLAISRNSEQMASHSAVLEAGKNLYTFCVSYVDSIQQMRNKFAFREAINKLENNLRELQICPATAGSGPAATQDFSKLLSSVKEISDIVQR

CDK1/cyclinB(h) = biological target: T2, CDK1/cyclinB(h) (Homo sapiens, UniProt P06493); test: Eurofins KinaseProfiler radiometric kinase assay; format: biochemical; details: read-out: CDK1/cyclinB(h) % Residual activity
T2 construct: purchased Eurofins KinaseProfiler (Eurofins Cerep)

CDK7/cyclinH/MAT1(h) = biological target: T3, CDK7/cyclinH/MAT1(h) (Homo sapiens, UniProt P50613); test: Eurofins KinaseProfiler radiometric kinase assay; format: biochemical; details: read-out: CDK7/cyclinH/MAT1(h) % Residual activity
T3 construct: purchased Eurofins KinaseProfiler (Eurofins Cerep)

CK2α2(h) = biological target: T4, CK2α2(h) (Homo sapiens, UniProt P19784); test: Eurofins KinaseProfiler radiometric kinase assay; format: biochemical; details: read-out: CK2α2(h) % Residual activity
T4 construct: purchased Eurofins KinaseProfiler (Eurofins Cerep)

EGFR(h) = biological target: T5, EGFR(h) (Homo sapiens, UniProt P00533); test: Eurofins KinaseProfiler radiometric kinase assay; format: biochemical; details: read-out: EGFR(h) % Residual activity
T5 construct: purchased Eurofins KinaseProfiler (Eurofins Cerep)

EphB4(h) = biological target: T6, EphB4(h) (Homo sapiens, UniProt P54760); test: Eurofins KinaseProfiler radiometric kinase assay; format: biochemical; details: read-out: EphB4(h) % Residual activity
T6 construct: purchased Eurofins KinaseProfiler (Eurofins Cerep)

Fyn(h) = biological target: T7, Fyn(h) (Homo sapiens, UniProt P06241); test: Eurofins KinaseProfiler radiometric kinase assay; format: biochemical; details: for Fyn inhibition: 10 µM; for remaining activity at 10 µM: read-out: Fyn(h) % Residual activity
T7 construct: purchased Eurofins KinaseProfiler (Eurofins Cerep)
T7 sequence (P06241 whole entry): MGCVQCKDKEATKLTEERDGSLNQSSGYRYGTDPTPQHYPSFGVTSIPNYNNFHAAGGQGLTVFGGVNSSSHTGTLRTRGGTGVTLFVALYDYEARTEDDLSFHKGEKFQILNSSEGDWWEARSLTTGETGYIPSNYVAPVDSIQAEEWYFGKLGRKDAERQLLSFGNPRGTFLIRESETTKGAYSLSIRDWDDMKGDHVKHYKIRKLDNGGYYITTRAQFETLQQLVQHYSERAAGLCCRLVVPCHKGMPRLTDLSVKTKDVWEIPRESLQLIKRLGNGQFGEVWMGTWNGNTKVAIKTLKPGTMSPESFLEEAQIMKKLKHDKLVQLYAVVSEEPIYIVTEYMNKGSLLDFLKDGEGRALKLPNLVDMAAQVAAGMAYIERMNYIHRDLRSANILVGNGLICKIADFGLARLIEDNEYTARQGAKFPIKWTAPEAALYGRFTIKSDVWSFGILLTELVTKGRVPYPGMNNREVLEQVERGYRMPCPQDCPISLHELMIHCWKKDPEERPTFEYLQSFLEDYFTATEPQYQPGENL

IKKα(h) = biological target: T8, IKKα(h) (Homo sapiens, UniProt O15111); test: Eurofins KinaseProfiler radiometric kinase assay; format: biochemical; details: read-out: IKKα(h) % Residual activity
T8 construct: purchased Eurofins KinaseProfiler (Eurofins Cerep)

IRAK4(h) = biological target: T9, IRAK4(h) (Homo sapiens, UniProt Q9NWZ3); test: Eurofins KinaseProfiler radiometric kinase assay; format: biochemical; details: read-out: IRAK4(h) % Residual activity
T9 construct: purchased Eurofins KinaseProfiler (Eurofins Cerep)

LOK(h) = biological target: T10, LOK(h) (Homo sapiens, UniProt O94804); test: Eurofins KinaseProfiler radiometric kinase assay; format: biochemical; details: for LOK inhibition: 10 µM; for remaining activity at 10 µM: read-out: LOK(h) % Residual activity
T10 construct: purchased Eurofins KinaseProfiler (Eurofins Cerep)
T10 sequence (O94804 whole entry): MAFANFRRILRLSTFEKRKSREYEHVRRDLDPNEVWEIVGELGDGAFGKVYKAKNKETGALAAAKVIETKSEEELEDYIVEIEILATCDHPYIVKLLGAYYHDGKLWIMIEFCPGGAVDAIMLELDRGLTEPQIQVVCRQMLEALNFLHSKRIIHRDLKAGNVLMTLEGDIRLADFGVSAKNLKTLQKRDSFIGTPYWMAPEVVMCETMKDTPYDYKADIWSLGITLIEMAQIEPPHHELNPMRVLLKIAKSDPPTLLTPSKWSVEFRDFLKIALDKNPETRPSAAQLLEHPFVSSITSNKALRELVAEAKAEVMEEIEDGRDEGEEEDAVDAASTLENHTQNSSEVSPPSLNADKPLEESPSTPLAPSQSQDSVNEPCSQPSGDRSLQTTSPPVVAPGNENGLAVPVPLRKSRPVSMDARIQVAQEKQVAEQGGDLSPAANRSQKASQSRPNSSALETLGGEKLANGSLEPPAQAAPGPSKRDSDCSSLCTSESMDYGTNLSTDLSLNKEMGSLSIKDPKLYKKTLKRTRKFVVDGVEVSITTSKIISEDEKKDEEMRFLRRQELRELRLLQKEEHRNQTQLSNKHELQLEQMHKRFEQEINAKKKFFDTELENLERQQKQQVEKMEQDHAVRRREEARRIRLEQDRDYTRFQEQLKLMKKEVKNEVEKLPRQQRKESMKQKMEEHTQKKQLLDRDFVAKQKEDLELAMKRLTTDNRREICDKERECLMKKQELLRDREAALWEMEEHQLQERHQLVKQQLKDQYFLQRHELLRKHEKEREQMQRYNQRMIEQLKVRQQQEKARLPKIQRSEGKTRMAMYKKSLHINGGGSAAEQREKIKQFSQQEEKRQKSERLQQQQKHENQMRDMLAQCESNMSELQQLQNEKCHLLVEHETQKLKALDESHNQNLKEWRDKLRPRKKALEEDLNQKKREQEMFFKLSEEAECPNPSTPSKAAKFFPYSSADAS

Lyn(h) = biological target: T11, Lyn(h) (Homo sapiens, UniProt P07948); test: Eurofins KinaseProfiler radiometric kinase assay; format: biochemical; details: for Lyn inhibition: 10 µM; for remaining activity at 10 µM: read-out: Lyn(h) % Residual activity
T11 construct: purchased Eurofins KinaseProfiler (Eurofins Cerep)
T11 sequence (P07948 whole entry): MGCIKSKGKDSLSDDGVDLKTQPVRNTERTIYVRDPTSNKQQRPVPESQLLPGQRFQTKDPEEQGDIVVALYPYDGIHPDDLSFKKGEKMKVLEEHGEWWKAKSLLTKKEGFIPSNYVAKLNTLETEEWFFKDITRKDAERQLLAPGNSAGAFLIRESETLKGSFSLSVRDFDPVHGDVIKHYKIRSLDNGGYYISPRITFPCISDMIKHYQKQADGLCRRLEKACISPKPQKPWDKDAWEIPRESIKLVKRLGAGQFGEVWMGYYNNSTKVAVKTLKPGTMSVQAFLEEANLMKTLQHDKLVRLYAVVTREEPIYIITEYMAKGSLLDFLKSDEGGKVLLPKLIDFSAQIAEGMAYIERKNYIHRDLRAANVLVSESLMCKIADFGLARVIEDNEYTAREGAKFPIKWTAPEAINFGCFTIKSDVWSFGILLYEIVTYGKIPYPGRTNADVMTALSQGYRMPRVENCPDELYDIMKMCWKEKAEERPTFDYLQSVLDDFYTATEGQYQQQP

MAPKAP-K2(h) = biological target: T12, MAPKAP-K2(h) (Homo sapiens, UniProt P49137); test: Eurofins KinaseProfiler radiometric kinase assay; format: biochemical; details: read-out: MAPKAP-K2(h) % Residual activity
T12 construct: purchased Eurofins KinaseProfiler (Eurofins Cerep)

Mnk2(h) = biological target: T13, Mnk2(h) (Homo sapiens, UniProt Q9HBH9); test: Eurofins KinaseProfiler radiometric kinase assay; format: biochemical; details: read-out: Mnk2(h) % Residual activity
T13 construct: purchased Eurofins KinaseProfiler (Eurofins Cerep)

MST1(h) = biological target: T14, MST1(h) (Homo sapiens, UniProt Q13043); test: Eurofins KinaseProfiler radiometric kinase assay; format: biochemical; details: read-out: MST1(h) % Residual activity
T14 construct: purchased Eurofins KinaseProfiler (Eurofins Cerep)

NEK2(h) = biological target: T15, NEK2(h) (Homo sapiens, UniProt P51955); test: Eurofins KinaseProfiler radiometric kinase assay; format: biochemical; details: read-out: NEK2(h) % Residual activity
T15 construct: purchased Eurofins KinaseProfiler (Eurofins Cerep)

PDGFRβ(h) = biological target: T16, PDGFRβ(h) (Homo sapiens, UniProt P09619); test: Eurofins KinaseProfiler radiometric kinase assay; format: biochemical; details: read-out: PDGFRβ(h) % Residual activity
T16 construct: purchased Eurofins KinaseProfiler (Eurofins Cerep)
T16 sequence (P09619 33-1106): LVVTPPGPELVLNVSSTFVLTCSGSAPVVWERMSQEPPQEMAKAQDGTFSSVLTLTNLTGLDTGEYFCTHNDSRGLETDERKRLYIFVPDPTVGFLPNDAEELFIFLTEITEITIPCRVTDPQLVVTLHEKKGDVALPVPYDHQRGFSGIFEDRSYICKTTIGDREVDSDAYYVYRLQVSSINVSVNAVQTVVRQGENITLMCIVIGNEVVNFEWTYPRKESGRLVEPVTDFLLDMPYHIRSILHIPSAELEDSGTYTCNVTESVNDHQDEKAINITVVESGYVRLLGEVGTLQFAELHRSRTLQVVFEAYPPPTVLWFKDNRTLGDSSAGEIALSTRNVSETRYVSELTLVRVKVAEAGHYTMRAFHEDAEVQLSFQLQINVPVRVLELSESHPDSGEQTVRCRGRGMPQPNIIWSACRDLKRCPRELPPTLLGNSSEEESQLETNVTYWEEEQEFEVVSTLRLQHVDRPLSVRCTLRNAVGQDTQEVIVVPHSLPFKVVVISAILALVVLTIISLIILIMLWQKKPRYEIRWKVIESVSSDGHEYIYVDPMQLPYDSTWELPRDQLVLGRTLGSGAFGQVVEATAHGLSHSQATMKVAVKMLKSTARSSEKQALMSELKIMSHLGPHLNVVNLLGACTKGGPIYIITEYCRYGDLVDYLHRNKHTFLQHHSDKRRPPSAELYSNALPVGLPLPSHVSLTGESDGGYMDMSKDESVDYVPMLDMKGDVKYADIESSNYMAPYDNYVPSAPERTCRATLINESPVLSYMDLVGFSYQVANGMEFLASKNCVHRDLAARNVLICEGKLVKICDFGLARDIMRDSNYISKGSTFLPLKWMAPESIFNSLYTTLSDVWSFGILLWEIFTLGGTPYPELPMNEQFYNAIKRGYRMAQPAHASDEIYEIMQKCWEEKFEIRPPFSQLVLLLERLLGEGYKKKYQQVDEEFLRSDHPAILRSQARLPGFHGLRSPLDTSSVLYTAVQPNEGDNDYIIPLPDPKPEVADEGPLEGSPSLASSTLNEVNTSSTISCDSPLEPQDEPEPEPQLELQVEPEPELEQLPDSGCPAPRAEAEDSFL

PKA(h) = biological target: T17, PKA(h) (Homo sapiens, UniProt P17612); test: Eurofins KinaseProfiler radiometric kinase assay; format: biochemical; details: for remaining activity at 10 µM: read-out: PKA(h) % Residual activity
T17 construct: purchased Eurofins KinaseProfiler (Eurofins Cerep)

PKBα(h) = biological target: T18, PKBα(h) (Homo sapiens, UniProt P31749); test: Eurofins KinaseProfiler radiometric kinase assay; format: biochemical; details: read-out: PKBα(h) % Residual activity
T18 construct: purchased Eurofins KinaseProfiler (Eurofins Cerep)

PKCα(h) = biological target: T19, PKCα(h) (Homo sapiens, UniProt P17252); test: Eurofins KinaseProfiler radiometric kinase assay; format: biochemical; details: read-out: PKCα(h) % Residual activity
T19 construct: purchased Eurofins KinaseProfiler (Eurofins Cerep)

PKCθ(h) = biological target: T20, PKCθ(h) (Homo sapiens, UniProt Q04759); test: Eurofins KinaseProfiler radiometric kinase assay; format: biochemical; details: read-out: PKCθ(h) % Residual activity
T20 construct: purchased Eurofins KinaseProfiler (Eurofins Cerep)
T20 sequence (Q04759 whole entry): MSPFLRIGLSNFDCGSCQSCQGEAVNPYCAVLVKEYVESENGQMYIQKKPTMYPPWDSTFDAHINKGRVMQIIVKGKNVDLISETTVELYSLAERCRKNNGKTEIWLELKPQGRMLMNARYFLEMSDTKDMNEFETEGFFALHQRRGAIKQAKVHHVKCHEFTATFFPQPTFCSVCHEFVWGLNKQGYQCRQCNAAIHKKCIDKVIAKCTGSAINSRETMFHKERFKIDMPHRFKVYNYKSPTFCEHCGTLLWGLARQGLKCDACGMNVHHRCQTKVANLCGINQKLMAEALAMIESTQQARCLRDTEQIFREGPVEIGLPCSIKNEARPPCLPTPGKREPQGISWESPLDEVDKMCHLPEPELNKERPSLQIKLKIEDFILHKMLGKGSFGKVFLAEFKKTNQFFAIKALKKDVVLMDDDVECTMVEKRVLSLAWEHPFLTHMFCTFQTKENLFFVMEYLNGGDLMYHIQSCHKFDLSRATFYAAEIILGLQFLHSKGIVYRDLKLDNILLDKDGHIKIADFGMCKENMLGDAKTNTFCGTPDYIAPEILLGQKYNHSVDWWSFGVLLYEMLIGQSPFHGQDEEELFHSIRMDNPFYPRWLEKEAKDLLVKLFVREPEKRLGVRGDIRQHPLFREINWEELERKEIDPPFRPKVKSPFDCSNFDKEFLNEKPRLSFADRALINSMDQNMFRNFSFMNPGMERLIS

Plk3(h) = biological target: T21, Plk3(h) (Homo sapiens, UniProt Q9H4B4); test: Eurofins KinaseProfiler radiometric kinase assay; format: biochemical; details: read-out: Plk3(h) % Residual activity
T21 construct: purchased Eurofins KinaseProfiler (Eurofins Cerep)

SAPK2a(h) = biological target: T22, SAPK2a(h) (Homo sapiens, UniProt Q16539); test: Eurofins KinaseProfiler radiometric kinase assay; format: biochemical; details: read-out: SAPK2a(h) % Residual activity
T22 construct: purchased Eurofins (Eurofins Cerep) KinaseProfiler

[3] = system: immortalized murine microglia N9; test: Immunomodulation in LPS-treated N9 microglia, Western blot of iNOS and TREM2; details: 2.5 and 5 μM; 100 ng/mL LPS, 24 h
Experimental: To gain a conclusive answer on the potential role of these kinase inhibitors in counteracting neuroinflammatory processes, after the verified induced astrocytic polarization, the ability of selected compounds to modulate inflammatory response was analyzed by favoring the immunomodulatory switch from neurotoxic M1 phenotype of microglia to phagocytic and neuroprotective M2 phenotype, evaluating inducible nitric oxide synthase (iNOS) and TREM2 as M1 and M2 markers (Figure ).
The microglial phenotype was evaluated through Western blot analysis of the pro-inflammatory iNOS and anti-inflammatory-TREM2 markers.

Row | SMILES | Increase in registered cell viability in comparison to control [1] | Neurotoxicity on CGNs (cell viability compared to control) [1] | Neuroprotection on CGNs (cell viability after serum/potassium deprivation) [2] | Abl inhibition (Abl(h)) | remaining activity at 10 µM (Abl(h)) | remaining activity at 10 µM (CDK1/cyclinB(h)) | remaining activity at 10 µM (CDK7/cyclinH/MAT1(h)) | remaining activity at 10 µM (CK2α2(h)) | remaining activity at 10 µM (EGFR(h)) | remaining activity at 10 µM (EphB4(h)) | Fyn inhibition (Fyn(h)) | remaining activity at 10 µM (Fyn(h)) | remaining activity at 10 µM (IKKα(h)) | remaining activity at 10 µM (IRAK4(h)) | LOK inhibition (LOK(h)) | remaining activity at 10 µM (LOK(h)) | Lyn inhibition (Lyn(h)) | remaining activity at 10 µM (Lyn(h)) | remaining activity at 10 µM (MAPKAP-K2(h)) | remaining activity at 10 µM (Mnk2(h)) | further results
1 | Br.Cc1sc(NCc2ccccc2)nc1-c1c[nH]c2ncc(Br)cc12 [Compound 41, N-Benzyl-4-(5-bromo-1H-pyrrolo[2,3-b]pyridin-3-yl)-5-methylthiazol-2-amine Hydrobromide] | amplified | not neurotoxic | mitigate the physiological senescence and mortality rate | completely inhibited | 8% | 27% | 55% | 83% | 50% | 109% | completely inhibited | -2% | 96% | 52% | completely inhibited | 4% | completely inhibited | 1% | 33% | 17% | remaining activity at 10 µM (MST1(h)): 16%; remaining activity at 10 µM (NEK2(h)): 56%; remaining activity at 10 µM (PDGFRβ(h)): 95%; remaining activity at 10 µM (PKA(h)): 111%; remaining activity at 10 µM (PKBα(h)): 104%; remaining activity at 10 µM (PKCα(h)): 66%; remaining activity at 10 µM (PKCθ(h)): 98%; remaining activity at 10 µM (Plk3(h)): 89%; remaining activity at 10 µM (SAPK2a(h)): 101%; TREM2 expression (M2 marker) vs LPS [3]: no significant variations; iNOS expression (M1 marker) vs LPS [3]: notably decreased the M1 marker at both tested concentrations
2 | Br.Cc1sc(NCc2ccnc(Cl)c2)nc1-c1c[nH]c2ncccc12 [Compound 43, N-((2-Chloropyridin-4-yl)methyl)-5-methyl-4-(1H-pyrrolo[2,3-b]pyridin-3-yl)thiazol-2-amine Hydrobromide] | amplified | not neurotoxic | mitigate the physiological senescence and mortality rate | completely inhibited | 6% | 20% | 62% | 100% | 86% | 108% | completely inhibited | 0% | 99% | 31% | completely inhibited | 4% | completely inhibited | 1% | 45% | 27% | remaining activity at 10 µM (MST1(h)): 14%; remaining activity at 10 µM (NEK2(h)): 84%; remaining activity at 10 µM (PDGFRβ(h)): 93%; inhibition at 10 µM (PKA(h)): > 90%; remaining activity at 10 µM (PKA(h)): 8%; remaining activity at 10 µM (PKBα(h)): 103%; remaining activity at 10 µM (PKCα(h)): 28%; remaining activity at 10 µM (PKCθ(h)): 23%; remaining activity at 10 µM (Plk3(h)): 96%; remaining activity at 10 µM (SAPK2a(h)): 103%; TREM2 expression (M2 marker) vs LPS [3]: no significant variations; iNOS expression (M1 marker) vs LPS [3]: significantly reduced the M1 marker only at the highest concentration
